Results taken from patent publication US11952349B2, “Anti-cancer nuclear hormone receptor-targeting compounds” (Nuvation Bio Inc., priority 2019, dated 2024).
Like-named read-outs stand apart in the source and are kept apart here.

Tests used:
[1] = molecular target: Human recombinant PARP1 (Homo sapiens, UniProt P09874); experiment: RBC HotSpot PARP1 assay (radioisotope-based filter binding); format: biochemical
Protocol: The following methods are for evaluating the in vitro biology properties of the test articles. • a. RBC HotSpot Poly(ADP-ribose) Polymerases 1 (PARP1) and Poly(ADP-ribose) Polymerases 2 (PARP2) Assays: The assay was conducted at Reaction Biology Corporation (RBC; Malvern, PA). The assay principle is radioisotope-based filter binding assay where incorporation of radioisotope-labeled NAD^+ into the substrate captured on filter is detected after washout free NAD^+. Data were analyzed using Excel and GraphPad Prism software for IC50 curve fits. Each assay was conducted with PJ34 as a positive control. PARP1 assay: Human recombinant PARP1 at a final concentration of 2.5 nM was combined with histone H4 (20 μM) and test articles at various concentrations in reaction buffer (50 mM Tris-HCL, pH 8.0, 50 mM NaCl, 10 mM MgCl2, 1 mM DTT, 1% DMSO, and 20 μg/mL activated DNA). The solution was inoculated for 20 min at room temperature and the reaction initiated by adding [adenylate-^32P]-Nicotinamide Adenine Dinucleotide, ^32P-NAD^+ at a final concentration of 10 μM. After incubation for 2 hrs at room temperature, the reaction mixture was filtered and washed with 0.75% phosphoric acid for radioactivity detection. • ii. PARP2 assay: Human recombinant PARP2 at a final concentration of 2.5 nM was combined with histone H3 (20 μM) and test articles at various concentrations in reaction buffer (50 mM Tris-HCL, pH 8.0, 50 mM NaCl, 10 mM MgCl2, 1 mM DTT, 1% DMSO, and 20 μg/mL activated DNA). The solution was inoculated for 20 min at room temperature and the reaction was initiated by adding [adenylate-^32P]-Nicotinamide Adenine Dinucleotide, ^32P-NAD^+ at a final concentration of 10 μM. After incubation for 2 hrs at room temperature, the reaction mixture was filtered and washed with 0.75% phosphoric acid for radioactivity detection. • b. AR binding assay: AR in LNCaP cytosol was used for determining the binding affinity of test articles and the reference compound—progesterone (Sigma, Cat: E2785, St. Louis, MO). IC50 s were determined using 8 concentrations/compound. Cytosol is plated at 200 μg/well (100 μL) into a 96-well conical polypropylene plate (Agilent, Cat: 5042-1385, Santa Clara, CA) and mixed with 3 μL of test compound. After adding 100 μL of ^3H-methyltrienolone (PerkinElmer, Cat: NET590250UC, San Jose, CA), the plate was sealed and shaken at 300 rpm at 4° C. for 24 hours. Post incubation, 100 μL of radioligand adsorption buffer containing 10 mM Tris-HCl, pH 7.4; 1.5 mM EDTA; 1 mM DTT; 0.25% charcoal; 0.0025% dextran was added to individual wells. Plate was shaken for 15 min at 4° C. followed by centrifugation at 3000 rpm for 30 min at 4° C. 150 μL of supernatant is transferred into scint-tube (PerkinElmer, Cat: 6000192) and mixed with 2 mL of Ultima Gold Cocktail (PerkinElmer, Cat: 6013329). Radioactivity is counted using a TriCarb 2910 TR scintillation counter (PerkinElmer). Inhibition of the radioactivity by test articles was calculated using the equation below: % Inhibition=(1−(Assay well−Average_LC)/(Average_HC−Average_LC))×100%. • IC50 values (Table 6) were calculated and graphed using the model “log(inhibitor) vs. response—Variable slope” included in GraphPad Prism 5 (San Diego, CA). The Ki values were further calculated using the equation below where [L] is the radioligand concentration (1 nM) used in this study. Kd value was 0.332 nM. Ki=IC50/(1+[L]/Kd) • c. AR transactivation: Human AR cloned into a CMV vector backbone is used for the transactivation study. HEK-293 cells are plated at 80,000 cells per well of a 24 well plate in DME+5% csFBS. Twenty four hours later, the cells are transfected using Lipofectamine (Invitrogen, Carlsbad, CA) with 0.25 μg GRE-LUC, 0.01 μg CMV-LUC (renilla luciferase) and 25 ng of the AR in OPTIMEM medium. The cells are treated 24 hrs after transfection with various ligands (10^−12 to 10^−5 M final concentrations) and luciferase assay performed 48 hours after transfection. […]

[2] = molecular target: T1, full-length androgen receptor (Homo sapiens, UniProt P10275); experiment: AR antagonism assay (HEK293, testosterone 1 nM, Steady-glo); format: cell-based
T1 construct: HEK293 cells stably expressing the full-length androgen receptor; expressed in transfected cells
T1 sequence (P10275 1-920): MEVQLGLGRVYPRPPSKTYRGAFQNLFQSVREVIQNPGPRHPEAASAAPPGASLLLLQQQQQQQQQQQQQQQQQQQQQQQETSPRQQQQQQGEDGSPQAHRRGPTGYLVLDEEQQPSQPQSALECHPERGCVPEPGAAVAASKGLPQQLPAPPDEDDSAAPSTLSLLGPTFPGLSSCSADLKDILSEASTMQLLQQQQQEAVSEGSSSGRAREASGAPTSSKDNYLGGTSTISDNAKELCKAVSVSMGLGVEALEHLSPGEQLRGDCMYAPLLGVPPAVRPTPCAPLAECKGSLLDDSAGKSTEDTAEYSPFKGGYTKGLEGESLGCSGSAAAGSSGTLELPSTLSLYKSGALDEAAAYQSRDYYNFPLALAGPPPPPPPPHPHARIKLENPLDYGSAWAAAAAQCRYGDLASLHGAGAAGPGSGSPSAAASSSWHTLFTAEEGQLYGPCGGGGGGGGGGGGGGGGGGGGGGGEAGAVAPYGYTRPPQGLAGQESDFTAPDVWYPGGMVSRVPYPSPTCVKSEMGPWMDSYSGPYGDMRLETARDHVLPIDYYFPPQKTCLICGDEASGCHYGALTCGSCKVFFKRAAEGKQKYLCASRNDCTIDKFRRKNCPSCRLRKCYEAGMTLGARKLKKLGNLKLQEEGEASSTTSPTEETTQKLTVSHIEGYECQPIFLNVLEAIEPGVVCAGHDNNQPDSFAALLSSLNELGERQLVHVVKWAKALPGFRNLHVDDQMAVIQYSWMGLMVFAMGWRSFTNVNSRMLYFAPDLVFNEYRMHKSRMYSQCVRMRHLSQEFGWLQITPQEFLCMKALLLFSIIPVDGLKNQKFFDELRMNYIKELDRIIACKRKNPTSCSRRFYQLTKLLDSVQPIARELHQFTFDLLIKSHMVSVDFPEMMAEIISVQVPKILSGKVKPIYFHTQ
Protocol: AR antagonism assay: To evaluate AR antagonist activity, test compound was added to the assay plate (top dose 10 μM, 3 fold serial dilution, 10 point dose response). HEK293 cells stably expressing the full-length androgen receptor were seeded at a density of 20000 cells/well in the assay plate. The assay plate was then incubated at room temperature for 10 minutes and at 37° C., 5% CO2 for 20 minutes. Testosterone was added to the assay plate at 1 nM final concentration and the assay plate was incubated at 37° C., 5% CO2 for 20 h. After the incubation period, Steady-glo was added to the assay plate and mixed at room temperature for 20 minutes on an orbital shaker, before reading out on the EnVision plate reader.

[3] = Table 8, testosterone 1 nM, read-out: AR antagonism
[4] = Table 7, testosterone 1 nM, read-out: AR antagonism

Chain of Human recombinant PARP1 (P09874 whole entry): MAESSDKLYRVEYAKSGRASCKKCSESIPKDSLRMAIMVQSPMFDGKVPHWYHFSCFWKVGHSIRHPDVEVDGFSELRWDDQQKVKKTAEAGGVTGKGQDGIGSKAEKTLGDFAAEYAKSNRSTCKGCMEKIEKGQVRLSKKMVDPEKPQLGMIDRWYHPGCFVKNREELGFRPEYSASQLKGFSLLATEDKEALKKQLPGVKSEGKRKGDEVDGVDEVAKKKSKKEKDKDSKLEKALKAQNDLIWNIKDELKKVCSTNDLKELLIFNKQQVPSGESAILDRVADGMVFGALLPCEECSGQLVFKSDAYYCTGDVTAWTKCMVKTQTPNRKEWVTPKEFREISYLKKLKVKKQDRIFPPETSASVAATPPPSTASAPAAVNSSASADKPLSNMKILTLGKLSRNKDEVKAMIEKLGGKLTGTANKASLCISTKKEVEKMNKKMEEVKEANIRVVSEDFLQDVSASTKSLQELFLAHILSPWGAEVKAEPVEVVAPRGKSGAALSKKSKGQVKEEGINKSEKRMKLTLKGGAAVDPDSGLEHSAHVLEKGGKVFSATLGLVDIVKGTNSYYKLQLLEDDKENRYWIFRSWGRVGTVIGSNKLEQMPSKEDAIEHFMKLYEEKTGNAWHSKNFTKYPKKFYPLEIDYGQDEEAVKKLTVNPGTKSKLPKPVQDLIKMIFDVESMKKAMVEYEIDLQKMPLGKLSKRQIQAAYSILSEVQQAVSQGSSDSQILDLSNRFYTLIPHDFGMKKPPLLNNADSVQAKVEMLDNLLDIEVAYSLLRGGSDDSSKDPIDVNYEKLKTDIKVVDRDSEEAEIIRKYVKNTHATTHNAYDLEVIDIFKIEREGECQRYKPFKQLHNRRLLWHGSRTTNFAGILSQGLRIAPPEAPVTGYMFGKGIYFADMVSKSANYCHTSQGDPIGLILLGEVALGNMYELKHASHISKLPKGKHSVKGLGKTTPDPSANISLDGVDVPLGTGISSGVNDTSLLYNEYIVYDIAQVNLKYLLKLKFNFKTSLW

IC50 [2, 3] | SMILES | IC50 ([1]; Table 9, read-out: PARP1) | IC50 [2] | IC50 ([1]; Table 5, in vitro results, read-out: PARP1 IC50) | IC50 [2, 4]
– | C[C@@]12CCC(=O)C[C@H]1CC[C@H]1[C@H]2CC[C@]2(C)[C@@H]1CC[C@H]2OCCCCCCNC(=O)c1cc(Cc2n[nH]c(=O)c3ccccc23)ccc1F (stereo in doubt) [Compound 1426, N-(6-((5R,8S,9R,10R,13R,14R,17R)-10,13-dimethyl-3-oxohexadecahydro-1H-cyclopenta[a]phenanthren-17-yloxy)hexyl)-2-fluoro-5-((4-oxo-3,4-dihydrophthalazin-1-yl)methyl)benzamide] | > 100 nM | 100 to 1000 nM | – | –
100 to 1000 nM | CC#C[C@]1(O)CC[C@H]2[C@@H]3CCC4=CC(=O)CCC4=C3[C@@H](c3ccc(N(C)CCCCCC(=O)N4CCN(C(=O)c5cc(Cc6n[nH]c(=O)c7ccccc67)ccc5F)CC4)cc3)C[C@@]21C [Compound 135, 4-(4-fluoro-3-(4-(6-((4-((8S,11R,13S,14S,17S)-17-hydroxy-13-methyl-3-oxo-17-(prop-1-ynyl)-2,3,6,7,8,11,12,13,14,15,16,17-dodecahydro-1H-cyclopenta[a]phenanthren-11-yl)phenyl)(methyl)amino)hexanoyl)piperazine-1-carbonyl)benzyl)phthalazin-1(2H)-one] | 1 to 10 nM | – | – | –
– | C[C@]12C[C@H](CCCCCC(=O)N3CCN(C(=O)c4cc(Cc5n[nH]c(=O)c6ccccc56)ccc4F)CC3)C3=C4CCC(=O)C=C4CC[C@H]3[C@@H]1CCC2O (stereo partly drawn) [Compound 138, 4-(4-fluoro-3-(4-(6-((8S,11S,13S,14S)-17-hydroxy-13-methyl-3-oxo-2,3,6,7,8,11,12,13,14,15,16,17-dodecahydro-1H-cyclopenta[a]phenanthren-11-yl)hexanoyl)piperazine-1-carbonyl)benzyl)phthalazin-1(2H)-one] | < 1 nM | 100 to 1000 nM | – | –
– | Cn1ncnc1C1c2n[nH]c(=O)c3cc(F)cc(c23)N[C@@H]1c1ccc(NC(=O)CCCCCO[C@@H]2CC[C@H]3[C@@H]4CC[C@H]5CCCC[C@]5(C)[C@H]4CC[C@]23C)cc1 (stereo partly drawn) [Compound 1128, 6-((5R,8R,9S,10S,13S,14S,17R)-10,13-dimethylhexadecahydro-1H-cyclopenta[a]phenanthren-17-yloxy)-N-(4-((8S)-5-fluoro-9-(1-methyl-1H-1,2,4-triazol-5-yl)-3-oxo-3,7,8,9-tetrahydro-2H-pyrido[4,3,2-de]phthalazin-8-yl)phenyl)hexanamide] | – | – | 252 nM | 1000 to 10000 nM
100 to 1000 nM | CC(=O)O[C@]1(C(C)=O)CC[C@H]2[C@@H]3CCC4=CC(=O)CCC4=C3[C@@H](c3ccc(N(C)CCCCCC(=O)N4CCN(C(=O)c5cc(Cc6n[nH]c(=O)c7ccccc67)ccc5F)CC4)cc3)C[C@@]21C [Compound 1378, (8S,11R,13S,14S,17R)-17-acetyl-11-(4-((6-(4-(2-fluoro-5-((4-oxo-3,4-dihydrophthalazin-1-yl)methyl)benzoyl)piperazin-1-yl)-6-oxohexyl)(methyl)amino)phenyl)-13-methyl-3-oxo-2,3,6,7,8,11,12,13,14,15,16,17-dodecahydro-1H-cyclopenta[a]phenanthren-17-yl acetate] | 1 to 10 nM | – | – | –
> 10000 nM | CC(=O)O[C@]1(C(C)=O)CC[C@H]2[C@@H]3CCC4=CC(=O)CCC4=C3[C@@H](c3ccc(N(C)CCCCCC(=O)NCCOCCOCC(=O)N4CCN(C(=O)c5cc(Cc6n[nH]c(=O)c7ccccc67)ccc5F)CC4)cc3)C[C@@]21C [Compound 1384, (8S,11R,13S,14S,17R)-17-acetyl-11-(4-((6-(2-(2-(2-(4-(2-fluoro-5-((4-oxo-3,4-dihydrophthalazin-1-yl)methyl)benzoyl)piperazin-1-yl)-2-oxoethoxy)ethoxy)ethylamino)-6-oxohexyl)(methyl)amino)phenyl)-13-methyl-3-oxo-2,3,6,7,8,11,12,13,14,15,16,17-dodecahydro-1H-cyclopenta[a]phenanthren-17-yl acetate] | 1 to 10 nM | – | – | –
– | C[C@]12Cc3cn[nH]c3C[C@@H]1CC[C@@H]1[C@@H]2CC[C@]2(C)[C@@H](OCCCCCC(=O)N3CCN(C(=O)c4cc(Cc5n[nH]c(=O)c6ccccc56)ccc4F)CC3)CC[C@@H]12 [Compound 1394, 4-(3-(4-(6-(((1S,3aS,3bR,5aS,10aS,10bS,12aS)-10a,12a-dimethyl-1,2,3,3a,3b,4,5,5a,6,7,10,10a,10b,11,12,12a-hexadecahydrocyclopenta[5,6]naphtho[1,2-f]indazol-1-yl)oxy)hexanoyl)piperazine-1-carbonyl)-4-fluorobenzyl)phthalazin-1(2H)-one] | 10 to 100 nM | – | – | 1000 to 10000 nM

SMILES | IC50 [2, 3] | IC50 ([1]; Table 9, read-out: PARP1) | IC50 [2] | IC50 ([1]; Table 5, in vitro results, read-out: PARP1 IC50) | IC50 [2, 4]
C[C@]12CC[C@H]3[C@@H](CCC4=CC(=O)CC[C@@]43C)[C@@H]1CC[C@@H]2C(=O)COCCCCCC(=O)N1CCN(C(=O)c2cc(Cc3n[nH]c(=O)c4ccccc34)ccc2F)CC1 [Compound 1386, 4-(3-(4-(6-(2-((8S,9S,10R,13S,14S,17S)-10,13-dimethyl-3-oxo-2,3,6,7,8,9,10,11,12,13,14,15,16,17-tetradecahydro-1H-cyclopenta[a]phenanthren-17-yl)-2-oxoethoxy)hexanoyl)piperazine-1-carbonyl)-4-fluorobenzyl)phthalazin-1(2H)-one] | 100 to 1000 nM | 1 to 10 nM | – | – | –
